Here are results for 5 compounds from patent publication US4601984A, “Process to produce antibiotics X-14873 A, G and H” (Hoffmann-La Roche Inc., priority 1983, dated 1986).

Converted amounts (≈) assume the structure as drawn.

The test system of one series is Sarcina lutea. The series can be described thus: Minimum Inhibitory Concentration. The class given is cell-based. The following applies: Micrococcus luteus, ATCC9341; Sarcina lutea ATCC 9341.
Another series has as its system gram-positive bacteria. Briefly: Activity against gram-positive bacteria, summary. The class given is cell-based.
For another series, the system named is Bacillus megaterium. The series can be described thus: Minimum Inhibitory Concentration. The class given is cell-based. The following applies: Priestia megaterium, ATCC8011; Bacillus megaterium ATCC 8011.
The subject of a further series is Mycobacterium phlei. Briefly: Minimum Inhibitory Concentration. The class given is cell-based. The following applies: Mycolicibacterium phlei, ATCC355; Mycobacterium phlei ATCC 355.
The test system of a further series is Bacillus sp. E. Briefly: Minimum Inhibitory Concentration. The class given is cell-based. As to conditions: ATCC27359; Bacillus sp. E ATCC 27359.
For the next series, the system named is Bacillus sp. TA. Briefly: Minimum Inhibitory Concentration. The class given is cell-based. As to conditions: ATCC27860; Bacillus sp. TA ATCC 27860.
The subject of the next series is Paecilomyces varioti. The series can be described thus: Minimum Inhibitory Concentration. The class given is cell-based. As to conditions: ATCC25820; Paecilomyces varioti ATCC 25820.
In another series the test system is Candida albicans. The series can be described thus: Minimum Inhibitory Concentration. The class given is cell-based. The following applies: NRRL477; Candida albicans NRRL 477.
A further series deals with Streptococcus faecium. The series can be described thus: Minimum Inhibitory Concentration. The class given is cell-based. The following applies: Enterococcus faecium, ATCC8043; Streptococcus faecium ATCC 8043.
For another series, the system named is Penicillum digitatum. The series can be described thus: Minimum Inhibitory Concentration. The class given is cell-based. As to conditions: Penicillum digitatum ATCC 26821.
A short description of series [1]: Oral toxicity (LD50) in mice, 24 hours. The following applies: mouse, in vivo.
For a further series, the system named is Streptomyces cellulosae. Briefly: Minimum Inhibitory Concentration. The class given is cell-based. As to conditions: ATCC3313; Streptomyces cellulosae ATCC 3313.
The test system of a further series is Saccharomyces cerevisiae. Briefly: Minimum Inhibitory Concentration. The class given is cell-based. The following applies: ATCC4226; Saccharomyces cerevisiae ATCC 4226.
The next series has as its system Staphylococcus aureus. The series can be described thus: Minimum Inhibitory Concentration. As to conditions: ATCC6538P; Staphylococcus aureus ATCC 6538P. The class given is cell-based.
The test system of a further series is Bacillus subtilis. Briefly: Minimum Inhibitory Concentration. The class given is cell-based. As to conditions: NRRL558; Bacillus subtilis NRRL 558.
Series [2] relates to volatile fatty acids produced in the rumen. The series can be described thus: Ratio of volatile fatty acids produced in the rumen (GLC). The class given is in vivo, steer. The following applies: for VFA Ratio: C3/(C2 + nC4): ± one standard deviation, 3 animals.
For another series, the system named is E. tenella. The series can be described thus: In vitro coccidiostatic activity. The class given is cell-based. The following applies: Eimeria tenella, read-out: in vitro activity against E. tenella, active concentration.
The subject of another series is Proteus mirabilis 190. Briefly: Minimum Inhibitory Concentration. The class given is cell-based.
In a further series the test system is Pseudomonas aeruginosa B. Briefly: Minimum Inhibitory Concentration. The class given is cell-based.
The test system of series [3] is Trichophyton mentagrophytes. The series can be described thus: Minimum Inhibitory Concentration. The class given is cell-based.
The subject of the next series is Treponema hyodysenteriae. The series can be described thus: Minimum inhibitory concentration against the agent of swine dysentery. The following applies: Brachyspira hyodysenteriae. The class given is cell-based.
The next series concerns Salmonella typhi P58A. Briefly: Minimum Inhibitory Concentration. The class given is cell-based. The following applies: Salmonella enterica, read-out: Minimum Inhibitory Concentration.
A further series has as its system Microsporum audouini. The series can be described thus: Minimum Inhibitory Concentration. The class given is cell-based.
The next series relates to Serratia marcescens SM. The series can be described thus: Minimum Inhibitory Concentration. The class given is cell-based.
A further series has as its system Klebsiella pneumoniae A. The series can be described thus: Minimum Inhibitory Concentration. The class given is cell-based.
Series [4] relates to Staphylococcus aureus Smith. Briefly: Minimum Inhibitory Concentration. The class given is cell-based.
Series [5] has as its system Enterobacter cloacae 5699. The series can be described thus: Minimum Inhibitory Concentration. The class given is cell-based.
Another series concerns ruminants. Briefly: Growth promotion and feed utilization in ruminants. The class given is in vivo, e.g. cattle.
Another series deals with Escherichia coli 257. Briefly: Minimum Inhibitory Concentration. The class given is cell-based.
The subject of another series is Strain X-14873. The series can be described thus: Streptomycin sensitivity of the producing strain (disc). The class given is cell-based, Streptomyces sp. X-14873. The following applies: Streptomyces, X14873; 10 mcg in 1/4" disc.
The mark [6] stands for this setting: Medication day 2, 30 g/ton in ration, nonmedicated 0.211 ± 0.019.
[7] abbreviates: Medication day 5, 30 g/ton in ration, nonmedicated 0.248 ± 0.058.
Setting [8] is: Medication day 7, 30 g/ton in ration, nonmedicated 0.325 ± 0.166.
The mark [9] stands for this setting: Medication day 9, 30 g/ton in ration, nonmedicated 0.338 ± 0.164.
Where [10] appears, read: Medication day 12, 30 g/ton in ration, nonmedicated 0.293 ± 0.148.
Setting [11] is: Pre-medication day 1 (baseline).
Where [12] appears, read: Pre-medication day 3 (baseline).
[13] abbreviates: Pre-medication day 5 (baseline).
The mark [14] stands for this setting: Pre-medication day 8 (baseline).
Setting [15] is: Pre-medication day 10 (baseline).

Broadly, the LD50 is the dose at which mortality reaches 50%. Read a low LD50 as a more toxic substance. As for `CCC(C(=O)C(C)C(O)C(C)C1OC(C)(O)C(CC)C(O)C1C)C1OC(C)(C2(O)OC(CC)(C(O)CC)CC2C)CC1C` (stereo not drawn) [Antibiotic X-14873H], the MIC was 16 µg/mL (≈ 26 µM) in the series on Sarcina lutea; 4 µg/mL (≈ 6.51 µM) against Bacillus megaterium; more than 1000 µg/mL against Mycobacterium phlei; 2 µg/mL (≈ 3.25 µM) with Bacillus sp. E; 8 µg/mL (≈ 13 µM) in the series with Bacillus sp. TA; more than 1000 µg/mL in the series with Paecilomyces varioti. Also, the MIC against Candida albicans is more than 1000 µg/mL; in the series with Streptococcus faecium, 2 µg/mL (≈ 3.25 µM); in the series with Penicillum digitatum, more than 1000 µg/mL; in the series on Streptomyces cellulosae it was more than 1000 µg/mL; with Saccharomyces cerevisiae it was more than 1000 µg/mL; in the series with Staphylococcus aureus, 8 µg/mL (≈ 13 µM). In the series with Bacillus subtilis, the MIC is 16 µg/mL (≈ 26 µM). In the series with gram-positive bacteria, the “effect on growth of gram-positive bacteria” value (“effect on growth” for short) is “adversely affecting the growth of certain gram-positive bacteria”. The same compound returned an LD50 at 24 h in series [1] of 4000 mg/kg.
As to `CCC(C(=O)C(C)C(O)C(C)C1OC(C)(O)C(CC)C(O)C1C)C1OC(C)(C23OC(CC)C(CC)(CC2C)O3)CC1C` (stereo not drawn) [Antibiotic X-14873G], the MIC is more than 1000 µg/mL against Sarcina lutea; more than 1000 µg/mL against Bacillus megaterium; more than 1000 µg/mL against Mycobacterium phlei; 8 µg/mL (≈ 13.4 µM) with Bacillus sp. E; more than 1000 µg/mL with Bacillus sp. TA; more than 1000 µg/mL against Paecilomyces varioti. Also, the MIC in the series on Candida albicans is more than 1000 µg/mL; with Streptococcus faecium, 63 µg/mL (≈ 106 µM); against Penicillum digitatum, more than 1000 µg/mL; in the series on Streptomyces cellulosae it was more than 1000 µg/mL; against Saccharomyces cerevisiae, more than 1000 µg/mL; against Staphylococcus aureus, more than 1000 µg/mL. The MIC against Bacillus subtilis is more than 1000 µg/mL. Moreover, the “effect on growth” value in the series with gram-positive bacteria is “adversely affecting the growth of certain gram-positive bacteria”. Besides, the LD50 at 24 h in [1] was 4000 mg/kg.
Consider `CC[C@@H](C(=O)[C@@H](C)[C@@H](O)[C@H](C)CCc1ccc(C)c(O)c1C(=O)O)[C@H]1O[C@](CC)([C@H]2CC[C@](O)(CC)[C@H](C)O2)C[C@@H]1C` [Lasalocid, lasalocid, reference compound], for which the “VFA Ratio: C3/(C2 + nC4)” value stood at 0.376 ± 0.109 in series [2] (setting [6]); 0.390 ± 0.073 in series [2] (setting [7]); 0.373 ± 0.015 in series [2] (setting [8]); 0.381 ± 0.064 in series [2] (setting [9]); 0.372 ± 0.056 in [2] (setting [10]); 0.229 ± 0.013 in series [2] (setting [11]). Also, the “VFA Ratio: C3/(C2 + nC4)” value in series [2] (setting [12]) turned out to be 0.255 ± 0.051; in series [2] (setting [13]), 0.244 ± 0.060; in series [2] (setting [14]), 0.236 ± 0.041; in series [2] (setting [15]), 0.224 ± 0.011.
For `CCC(C(=O)C(C)C(O)C(C)C1OC(O)(CC(=O)O)C(CC)C(O)C1C)C1OC(C)(C2(O)OC(CC)(C(O)CC)CC2C)CC1C` (stereo not drawn) [Antibiotic X-14873A], the MIC against Sarcina lutea was found to be 3 µg/mL (≈ 4.55 µM); in the series with Proteus mirabilis 190, 128 µg/mL (≈ 194 µM); with Pseudomonas aeruginosa B, 128 µg/mL (≈ 194 µM); with Bacillus megaterium, 3 µg/mL (≈ 4.55 µM); in series [3], 100 µg/mL (≈ 152 µM); with Treponema hyodysenteriae it was 5 µg/mL (≈ 7.59 µM). In addition, the MIC with Salmonella typhi P58A was found to be 128 µg/mL (≈ 194 µM); against Mycobacterium phlei it was 3 µg/mL (≈ 4.55 µM); against Bacillus sp. E, 0.8 µg/mL (≈ 1.21 µM); against Microsporum audouini, 100 µg/mL (≈ 152 µM); against Serratia marcescens SM it was 128 µg/mL (≈ 194 µM); against Bacillus sp. TA, 3 µg/mL (≈ 4.55 µM). Also, the MIC against Klebsiella pneumoniae A came to 128 µg/mL (≈ 194 µM); in the series on Paecilomyces varioti, 125 µg/mL (≈ 190 µM); against Candida albicans, 62.5 µg/mL (≈ 94.9 µM); against Streptococcus faecium, 0.1 µg/mL (≈ 0.152 µM); in [4] it was 64 µg/mL (≈ 97.1 µM); against Penicillum digitatum it was 500 µg/mL (≈ 759 µM). The MIC was determined as 128 µg/mL (≈ 194 µM) in series [5]; 12.5 µg/mL (≈ 19 µM) against Streptomyces cellulosae; 500 µg/mL (≈ 759 µM) in the series on Saccharomyces cerevisiae; 6.3 µg/mL (≈ 9.56 µM) in the series on Staphylococcus aureus; 3 µg/mL (≈ 4.55 µM) in the series on Bacillus subtilis; 128 µg/mL (≈ 194 µM) in the series with Escherichia coli 257. Further, the “effect on growth” value in the series on gram-positive bacteria is reported as “adversely affecting the growth of certain gram-positive bacteria”. In addition, in the series with E. tenella, the minimal effective concentration turned out to be 200 µg/mL. In addition, the LD50 at 24 h in series [1] was found to be 120 mg/kg. The “efficiency of feed utilization in ruminant animals” value in the series on ruminants (administered orally) is “increases the efficiency of feed utilization”. Besides, the “activity as a growth promotant in ruminants” value with ruminants (ruminants, e.g. cattle) was “exhibit activity as a growth promotant in ruminants”. For the same compound, in series [2] (30 g/ton, compared with lasalocid), the “increase over control of the volatile fatty acid ratio vs lasalocid” value is “greater increase over control of the volitile fatty acid ratio than lasalocid”. For the same compound, the “VFA Ratio: C3/(C2 + nC4)” value in series [2] (setting [6]) is recorded as 0.445 ± 0.075; in [2] (setting [7]), 0.584 ± 0.328; in [2] (setting [8]), 0.679 ± 0.448; in [2] (setting [9]), 0.642 ± 0.387; in series [2] (setting [10]) it was 0.495 ± 0.242; in series [2] (setting [11]), 0.213 ± 0.016. Also, the “VFA Ratio: C3/(C2 + nC4)” value was 0.235 ± 0.036 in [2] (setting [12]), 0.234 ± 0.042 in series [2] (setting [13]), 0.245 ± 0.046 in series [2] (setting [14]) and 0.216 ± 0.038 in series [2] (setting [15]).
Broadly, the zone of inhibition is the extent of the growth-free halo in a diffusion test. In the series on Strain X-14873, `[H]/N=C(/N)N[C@H]1[C@H](O)[C@@H](O)[C@H](O[C@@H]2O[C@@H](C)[C@](O)(C=O)[C@H]2O[C@@H]2O[C@@H](CO)[C@H](O)[C@@H](O)[C@@H]2NC)[C@@H](N/C(N)=N\[H])[C@@H]1O` [Streptomycin] showed a zone of inhibition at 10 µg/disc of 13 mm.
